Test results taken from patent US11992467B2, “Promotion of lymphatic function” (Universitaet Basel, priority 2014, dated 2024).

How the values were obtained:
lymphangiogenesis = conditions: experimental mouse lymphedema models; cited from earlier work
A2780 = conditions: cited from earlier work
K562 = conditions: cited from earlier work
Plasmodium = conditions: cited from earlier work
fungi = conditions: cited from earlier work
LEC = assay: Sprouting assay (LEC-coated microcarriers in collagen); type: cell-based, human; conditions: 24 hours
Method: To investigate cell sprouting, cytodex microcarriers were coated with LECs (Schulz et al. (2012) Phenotype-based high-content chemical library screening identifies statins as inhibitors of in vivo lymphangiogenesis. Proc Natl Acad Sci USA 109, E2665-2674). Then, the microcarriers were embedded in a collagen solution and media containing 0.1% DMSO, 20 ng/ml VEGF-A, or different concentrations of the IG extract, its subfractions or iridals were added for 24 hours. The induced sprouts were imaged at 4× magnification (Molecular Devices ImageXpress Micro HCS microscope MD2, Photometrics CoolSNAP HQ camera, Photometrics, Tucson, AZ, USA). Image analysis was performed using ImageJ64 and the number of sprouts per microcarrier was counted and plotted. Three replicates per condition were performed.

[1] = test system: guinea pig mesenteric lymphatic vessels; assay: Ex vivo lymphatic contractility assay
Text: Guinea pigs (7-15 days of age) were killed by decapitation during deep anaesthesia induced by inhalation of isoflurane. The small intestine with its attached mesentery was rapidly dissected and placed in a physiological saline solution (PSS) of the following composition (mM): CaCl2, 2.5; KCl, 5; MgCl2, 2; NaCl, 120; NaHCO3, 25; NaH2PO4, 1; glucose, 11. The pH was maintained at 7.4 by constant bubbling with 95% O2/5% CO2. […]
The organ bath was then mounted on the stage of an inverted microscope and continuously superfused at a flow rate of 3 ml/min with PSS heated to 36° C. […] A custom-written MatLab program detected vessel diameter changes on the video image and recorded them as a function of time, allowing measurement of frequency and amplitude of contractions. Decreases in vessel diameter greater than 50% of the diastolic diameter were counted as contractions. Preparations were allowed a 30 min equilibration period prior to drug application during which pumping was assessed. […] A 5 min control period of contractile activity was recorded prior to a 1 to 5 min application of iripallidal and effects on vessel contraction frequency were assessed during the ten subsequent minutes.

[2] = test system: cytochrome P450 1A isoenzyme; conditions: cited from earlier work

For `CC1=C(/C=C/C(C)=C\C=C\C(C)=C\C(=O)O)C(C)(C)CCC1` [9-cis retinoic acid], the lymphangiogenesis (lymphangiogenesis) is listed as “promote lymphangiogenesis”.
For `CC(C)=CCC/C(C)=C/CC/C(C)=C/CC[C@@]1(C)[C@H](CCCO)/C(=C(/C)C=O)CC[C@]1(C)O` [Iridal], the “activity on human tumor cell line” value (A2780) is listed as “interesting activity on two human tumor cell lines”, the “activity on human tumor cell line” value (K562) is listed as “interesting activity on two human tumor cell lines” and the antiplasmodial activity (Plasmodium) is listed as “antiplasmodial activity”. For the same compound, the antifungal activity (fungi) was “no antifungal activity”.
With `CC(C)=CCC/C(C)=C/CC(O)/C(C)=C/CC[C@@]1(C)[C@H](CCCO)/C(=C(\C)C=O)CC[C@]1(C)O` (some centres unmarked) [Iridobelamal A] the “Minimal effective concentration in sprouting assay” value (from here on “Minimal effective concentration”) (LEC) was 3 µM.
In the case of `C=C1CC[C@H](C)C(C)(C)[C@@H]1/C=C/C(C)=C/CC[C@@]1(CO)[C@H](CCCO)/C(=C(/C)C=O)CC[C@]1(C)O` [Iriflorental], the “Minimal effective concentration” value (LEC) is reported as 0.03 µM.
For `CC1=CC[C@H](C)C(C)(C)[C@@H]1/C=C/C(C)=C/CC[C@@]1(CO)[C@H](CCCO)/C(=C(/C)C=O)CC[C@]1(C)O` [Iripallidal], the “Minimal effective concentration” value (LEC) was 0.03 µM, the “vessels with small, but significant increase in contraction frequency” value ([1]; 10 μM) was 5 out of 6 and the “vessels with small, but significant increase in contraction frequency” value ([1]; 30 μM (data not shown)) was 4 out of 4.
In the case of `COc1cc(-c2coc3cc(O)c(OC)c(O)c3c2=O)cc(O)c1OC` [irigenin], the “inhibition of cytochrome P450 1A isoenzyme” value (from here on “inhibition”) [2] is listed as “potent inhibitors”.
In the case of `O=c1c(-c2ccc(O)cc2)coc2cc3c(c(O)c12)OCO3` [irilone], the “inhibition” value [2] is listed as “potent inhibitors”.
In the case of `C=C1CC[C@H](C)C(C)(C)[C@@H]1CC/C(C)=C/CC[C@@]1(C)[C@H](CCCO)/C(=C(/C)C=O)CC[C@]1(C)O` [γ-irigermanal], the “Minimal effective concentration” value (LEC) is reported as 0.01 µM.
With Cis isomer of α-dehydroirigermanal the “Minimal effective concentration” value (LEC) was 0.01 µM.
With Irigermanone the “Minimal effective concentration” value (LEC) was 10 µM.
In the case of Irisgermanical C, the “Minimal effective concentration” value (LEC) is reported as 1 µM.
For iriflogenin, the “inhibition” value [2] is listed as “potent inhibitors”.
